Consider eleven compounds from patent US20070037821A1, “Nitrosated glutamic acid compounds, compositions and methods of use” (NITROMED, INC., priority 2003, published 2007).

SMILES strings stand for the structures.

As usually defined, the melting point is the temperature, or range, at which the solid turns liquid. The compound `Cl.N[C@@H](CCC(=O)OCCCO[N+](=O)[O-])C(=O)O` registered a melting point of 137 to 139 °C.

In the case of `Cl.N[C@@H](CCC(=O)OC(CO[N+](=O)[O-])CO[N+](=O)[O-])C(=O)O`, the melting point was 139 °C (dec.).

Take `CC(C)(COC(=O)CC[C@H](N)C(=O)O)CO[N+](=O)[O-].Cl`: the melting point is 132 to 135 °C.

Consider `Cl.N[C@@H](CCC(=O)OCc1ccc(CO[N+](=O)[O-])cc1)C(=O)O`, for which the melting point lay within 135 to 138 °C.

The compound `Cl.N[C@@H](CCC(=O)OCC#CCO[N+](=O)[O-])C(=O)O` yielded a melting point of 107 to 110 °C.

Take `Cl.N[C@@H](CCC(=O)N1CCCC(CO[N+](=O)[O-])C1)C(=O)O` (some centres unmarked): the melting point is 70 to 72 °C (dec.).

`Cl.N[C@@H](CCC(=O)OCCCC(CO[N+](=O)[O-])O[N+](=O)[O-])C(=O)O` (some centres unmarked): the melting point fell in the range of 90 to 94 °C.

As to `Cl.N[C@@H](CCC(=O)N1CCC(CCO[N+](=O)[O-])CC1)C(=O)O`, the melting point fell in the range of 137 to 140 °C.

The compound `Cl.N[C@@H](CCC(=O)NCCCO[N+](=O)[O-])C(=O)O` had a melting point of 57 to 60 °C.

Regarding `CC(C)(CNC(=O)CC[C@H](N)C(=O)O)CO[N+](=O)[O-].Cl`, the melting point was in the range of 65 to 68 °C.

As to `Cl.N[C@@H](CCC(=O)O[C@H]1CO[C@H]2[C@@H]1OC[C@H]2O[N+](=O)[O-])C(=O)O` (stereo in doubt), the melting point fell in the range of 160 to 162 °C.
